# Measured values taken from patent US20240335385A1, “IONIZABLE AMINE LIPIDS AND LIPID NANOPARTICLES” (Beam Therapeutics Inc., priority 2021, published 2024).
# Tests used:
# [1] = RNA encapsulation efficiency of LNPs by Ribogreen assay; assay type: physicochemical; details: LNP of 47.5% Ionizable Lipid:40% cholesterol:2.5% PEG-2000 DMG:10% DPSC, N/P ratio 4-8
# Protocol: (§1) LNPs were prepared with 47.5% Ionizable Lipid (e.g., a compound provided herein):40% cholesterol:2.5% PEG-2000 DMG:10% DPSC and an N/P ratio range of 4-8. LNPs were formed by microfluidic mixing of the lipid and NA solutions using a Precision Nanosystems NanoAssemblr Spark or Benchtop series Instruments, according to the manufacturer's protocol. A ratio of aqueous to organic solvent of approximately 2:1 or 3:1 was maintained during mixing using differential flow rates. After mixing, LNPs were collected, diluted in phosphate buffer saline (PBS) or Tris-buffered saline (TBS) (approximately 1:1 v/v). Further buffer exchange was conducted using dialysis in PBS or TBS at 4° C. for 4 to 24 hours against a 20 kDa filter. After this initial dialysis, each individual LNP preparation was characterized via dynamic light scattering (DLS) to measure the size (e.g., diameter) and polydispersity. LNPs falling within specific diameter and polydispersity ranges were pooled, and further dialyzed against PBS or TBS at 4° C. for 1 to 4 hours against a 100 kDa dialysis cassette. After the second dialysis, LNPs were sterile filtered using 0.22 μm filter and stored at 4° C. for further use.
# RNA concentration and encapsulation efficiency were determined by Ribogreen assay (BioTek Synergy LX plate reader).
# [2] = LNP hydrodynamic diameter and polydispersity index by dynamic light scattering (DLS); assay type: physicochemical; details: LNP of 47.5% Ionizable Lipid:40% cholesterol:2.5% PEG-2000 DMG:10% DPSC, N/P ratio 4-8
# Protocol: as §1
# LNP hydrodynamic diameter and polydispersity index (PDI) were measured using high throughput dynamic light scattering (DLS) (Stunner, Unchained Labs). LNPs were diluted 1×TBS or PBS to an appropriate concentration and analyzed.
# lung = assay: LNP biodistribution screen, barcode fold above input (FAI) in lung; assay type: in vivo; details: mice, tissues 4 hours post-dose
# Protocol: (§2) Male and female mice aged approximately 8-12 weeks were used for studies described by the present Example. Each mouse was temporarily restrained and pooled LNP was administered IV via tail vein injection in up to five animals per experiment. Age-matched mice was also used to administer vehicle (1×TBS) via tail vein injection in up to three animals per experiment. Additional routes of administration can also be conducted including intracerebral ventricular (ICV), intracisterna manga (ICM), intrathecal (IT), intramuscular (IM), nebulization, intranasal (IN), subcutaneous (SC), intraarticular, and intradermal (ID). At 4 hours post-dose, tissues including liver, spleen, bone marrow, testes, gastrocnemius, quadricep, lung, heart, kidney, and pancreas may be collected for analysis.
# (§3) Liver, kidney, lung, and muscle (e.g. skeletal and cardiac) tissues may be mechanically, and then enzymatically digested using a mixture of proteinases, then passed through a 70 μm filter to generate single cell suspensions. Spleen tissues were mechanically digested to generate single cell suspensions. Tissues were treated with ACK buffer to lyse red blood cells, and then stained with fluorescently-labeled antibodies for flow cytometry and fluorescence-activated cell sorting (FACS). Commercially available antibodies were used in the present example. Using a BD FACSMelody (Becton Dickinson), samples were acquired via flow cytometry to generate gates prior to sorting. In general, the gating structure was size→singlet cells→live cells→cells of interest. T cells were defined as CD45+CD3+, monocytes are defined as CD45+CD11b+, and B cells are defined as CD45+CD19+. Endothelial cells were defined as CD31+, monocytes and Kupffer cells as CD45+CD11b+ and hepatocytes and myocytes were defined as CD31−/CD45− in the liver and muscle, respectively. Tissues from vehicle-dosed mice were used to set the gates for sorting.
# (§4) RNA from tissues were extracted using the Reliaprep RNA extraction kit, and libraries were prepared using the RNAseq kit, and sequenced on either a MiSeq or NextSeq500.
# (§5) To screen for preferential LNP delivery to a target tissues, the relative abundance of each barcode in one or more target tissues was measured and compared to the relative abundance of each barcode to its corresponding relative input abundance to determine fold above input (FAI) for each barcode. If the FAI of a barcode in a target tissue is above a threshold or above the FAI of a different LNP in the same tissue, the LNP can be identified as preferentially delivering to the target tissue.
# (§6) The FAI is the normalized relative abundance of a barcode in a selected sample as compared to its frequency in the input. The FAI of a barcode indicates how a LNP's abundance changes relative to the rest of the LNP pool. The FAI value of the barcode was calculated by normalizing the relative abundance in the barcode sequence counts in the isolated samples to its relative abundance in the administration input. […] The FAI then indicates the performance of an LNP relative to the input LNP composition.
# (§7) Each table describes data obtained from one screening experiment.
# spleen = assay: LNP biodistribution screen, barcode fold above input (FAI) in spleen; assay type: in vivo; details: mice, tissues 4 hours post-dose
# Protocol: as §2, §3, §4, §5, §6, §7
# liver = assay: LNP biodistribution screen, barcode fold above input (FAI) in liver; assay type: in vivo; details: mice, tissues 4 hours post-dose
# Protocol: as §2
# Liver, kidney, lung, and muscle (e.g. skeletal and cardiac) tissues may be mechanically, and then enzymatically digested using a mixture of proteinases, then passed through a 70 μm filter to generate single cell suspensions. Spleen tissues were mechanically digested to generate single cell suspensions. Tissues were treated with ACK buffer to lyse red blood cells, and then stained with fluorescently-labeled antibodies for flow cytometry and fluorescence-activated cell sorting (FACS). Commercially available antibodies were used in the present example. Using a BD FACSMelody (Becton Dickinson), samples were acquired via flow cytometry to generate gates prior to sorting. […]
# To screen for preferential LNP delivery to a target tissues, the relative abundance of each barcode in one or more target tissues was measured and compared to the relative abundance of each barcode to its corresponding relative input abundance to determine fold above input (FAI) for each barcode. […]
# The FAI is the normalized relative abundance of a barcode in a selected sample as compared to its frequency in the input. […] The FAI value of the barcode was calculated by normalizing the relative abundance in the barcode sequence counts in the isolated samples to its relative abundance in the administration input. […]
# [3] = screening experiment of Table 3, pooled LNP IV tail vein
# [4] = screening experiment of Table 4, pooled LNP IV tail vein
# [5] = screening experiment of Table 5, pooled LNP IV tail vein
Molecule,Mean Encapsulation Efficiency (%) [1] [%],Mean Diameter (nm) [2] [nm],Mean PDI [2],further results
"CC/C=C\CCCCOC(CCC(=O)OCCC(CCOC(=O)CCC(OCCCC/C=C\CC)OCCCC/C=C\CC)OC(=O)OCCCN(CC)CC)OCCCC/C=C\CC [Example 7-7, 3-(((3-(diethylamino)propoxy)carbonyl)oxy)pentane-1,5-diyl bis(4,4-bis(((Z)-oct-5-en-1-yl)oxy)butanoate)]",91.3,99.7,0.17,–
"CC/C=C\CCCCOC(CCC(=O)OCCC(CCOC(=O)CCCCCCC/C=C\C/C=C\CCCCC)OC(=O)OCCCN(CC)CC)OCCCC/C=C\CC (stereo not shown) [Example 7-2, 5-((4,4-bis(((Z)-oct-5-en-1-yl)oxy)butanoyl)oxy)-3-(((3-(diethylamino)propoxy)carbonyl)oxy)pentyl (9Z,12Z)-octadeca-9,12-dienoate]",87.2,96.4,0.12,–
"CC/C=C\CCCCOC(CCC(=O)OCCC(CCOC(=O)CCC(OCCCC/C=C\CC)OCCCC/C=C\CC)OC(=O)OCCCN(C)CC)OCCCC/C=C\CC [Example 7-8, 3-(((3-(ethyl(methyl)amino)propoxy)carbonyl)oxy)pentane-1,5-diyl bis(4,4-bis(((Z)-oct-5-en-1-yl)oxy)butanoate)]",89.9,110.4,0.09,–
"CC/C=C\CCCCOC(CCC(=O)OCCC(CCOC(=O)CCCCCCC/C=C\C/C=C\CCCCC)OC(=O)OCCCN(C)C)OCCCC/C=C\CC (stereo not shown) [Example 7-4, 5-((4,4-bis(((Z)-oct-5-en-1-yl)oxy)butanoyl)oxy)-3-(((3-(dimethylamino)propoxy)carbonyl)oxy)pentyl (9Z,12Z)-octadeca-9,12-dienoate]",86.3,88.8,0.13,–
"CC/C=C\CCCCOC(CCC(=O)OCCC(CCOC(=O)CCCCCCC/C=C\C/C=C\CCCCC)OC(=O)OCCCN(C)CC)OCCCC/C=C\CC (stereo not shown) [Example 7-3, 5-((4,4-bis(((Z)-oct-5-en-1-yl)oxy)butanoyl)oxy)-3-(((3-(ethyl(methyl)amino)propoxy)carbonyl)oxy)pentyl (9Z,12Z)-octadeca-9,12-dienoate]",86.7,91.0,0.13,–
"CCCCC/C=C\C/C=C\CCCCCCCCC(CCCCCCCC/C=C\C/C=C\CCCCC)OC(=O)CCCN(C)C [MC3, (6Z,9Z,28Z,31Z)-heptatriaconta-6,9,28,31-tetraen-19-yl 4-(dimethylamino) butanoate]",–,–,–,FAI (Lung) (lung; [3]): 1.09; FAI (Lung) (lung; [4]): 0.65; FAI (Lung) (lung; [5]): 0.50; FAI (Spleen) (spleen; [3]): 1.32; FAI (Spleen) (spleen; [4]): 0.45; FAI (Spleen) (spleen; [5]): 0.39; FAI (Liver) (liver; [3]): 0.80; FAI (Liver) (liver; [4]): 0.31
"5-((4,4-bis(((Z)-oct-5-en-1-yl)oxy)butanoyl)oxy)-3-((4-(pyrrolidin-1-yl)butanoyl)oxy)pentyl (9Z,12Z)-octadeca-9,12-dienoate [Example 7-5]",86.8,93.1,0.13,FAI (Lung) (lung; [3]): 1.30; FAI (Lung) (lung; [5]): 0.83; FAI (Spleen) (spleen; [3]): 1.29; FAI (Spleen) (spleen; [5]): 1.33; FAI (Liver) (liver; [3]): 2.28

# Second part, led by results:
Mean Encapsulation Efficiency (%) [1] [%],Mean Diameter (nm) [2] [nm],Mean PDI [2],Molecule,further results
86.5,85.0,0.16,"CCCCC/C=C\C/C=C\CCCCCCCC(=O)OCCC(CCOC(=O)CCC(OCCCCCCCC)OCCCCCCCC)OC(=O)OCCCN(CC)CC (stereo not shown) [Example 7-12, 5-((4,4-bis(octyloxy)butanoyl)oxy)-3-(((3-(diethylamino)propoxy)carbonyl)oxy)pentyl (9Z,12Z)-octadeca-9,12-dienoate]",–
87.0,80.8,0.16,"CCCCC/C=C\C/C=C\CCCCCCCC(=O)OCCC(CCOC(=O)CCC(OCCCCCCCC)OCCCCCCCC)OC(=O)CCCN1CCCC1 (stereo not shown) [Example 7-15, 5-((4,4-bis(octyloxy)butanoyl)oxy)-3-((4-(pyrrolidin-1-yl)butanoyl)oxy)pentyl (9Z,12Z)-octadeca-9,12-dienoate]",–
86.1,86.0,0.15,"CCCCC/C=C\C/C=C\CCCCCCCC(=O)OCCC(CCOC(=O)CCC(OCCCCCCCC)OCCCCCCCC)OC(=O)OCCCN(C)CC (stereo not shown) [Example 7-13, 5-((4,4-bis(octyloxy)butanoyl)oxy)-3-(((3-(ethyl(methyl)amino)propoxy)carbonyl)oxy)pentyl (9Z,12Z)-octadeca-9,12-dienoate]",–
87.2,84.3,0.18,"CCCCC/C=C\C/C=C\CCCCCCCC(=O)OCCC(CCOC(=O)CCC(OCCCCCCCC)OCCCCCCCC)OC(=O)OCCCN(C)C (stereo not shown) [Example 7-14, 5-((4,4-bis(octyloxy)butanoyl)oxy)-3-(((3-(dimethylamino)propoxy)carbonyl)oxy)pentyl (9Z,12Z)-octadeca-9,12-dienoate]",–
72.6,80.0,0.16,"CCCCCCCCOC(CCC(=O)OCCC(CCOC(=O)CCC(OCCCCCCCC)OCCCCCCCC)OC(=O)OCC1CCCN(CC)C1)OCCCCCCCC (stereo not shown) [Example 7-16, 3-((((1-ethylpiperidin-3-yl)methoxy)carbonyl)oxy)pentane-1,5-diyl bis(4,4-bis(octyloxy)butanoate)]",–
86.3,76.5,0.13,"CCCCC/C=C\C/C=C\CCCCCCCC(=O)OCCC(CCOC(=O)CCC(OCCCCCCCC)OCCCCCCCC)OC(=O)OCC1CCCN(CC)C1 (stereo not shown) [Example 7-11, 5-((4,4-bis(octyloxy)butanoyl)oxy)-3-((((1-ethylpiperidin-3-yl)methoxy)carbonyl)oxy)pentyl (9Z,12Z)-octadeca-9,12-dienoate]",–
89.0,92.9,0.13,"CC/C=C\CCCCOC(CCC(=O)OCCC(CCOC(=O)CCC(OCCCC/C=C\CC)OCCCC/C=C\CC)OC(=O)OCCCN(C)C)OCCCC/C=C\CC [Example 7-9, 3-(((3-(dimethylamino)propoxy)carbonyl)oxy)pentane-1,5-diyl bis(4,4-bis(((Z)-oct-5-en-1-yl)oxy)butanoate)]",–
90.0,76.7,0.16,"CCCCCCCCOC(CCC(=O)OCCC(CCOC(=O)CCC(OCCCCCCCC)OCCCCCCCC)OC(=O)OCCCN(C)CC)OCCCCCCCC [Example 7-18, 3-(((3-(ethyl(methyl)amino)propoxy)carbonyl)oxy)pentane-1,5-diyl bis(4,4-bis(octyloxy)butanoate)]",–
85.1,94.4,0.12,"CC/C=C\CCCCOC(CCC(=O)OCCCCC(CCCCOC(=O)CCC(OCCCC/C=C\CC)OCCCC/C=C\CC)OC(=O)OCC1CCCN(CC)C1)OCCCC/C=C\CC (stereo not shown) [Example 7-34, 5-((((1-ethylpiperidin-3-yl)methoxy)carbonyl)oxy)nonane-1,9-diyl bis(4,4-bis(((Z)-oct-5-en-1-yl)oxy)butanoate)]",–
